The target in the assay is T1, human Cav2.2α (α1B) subunit, along with the human β3 and α2δ1 auxiliary subunits (Homo sapiens, UniProt Q00975).
T1 construct: expressed in transfected cells; plasmids pCIN5-hCav2.2, pCIH-hCav β3, pCIP-α2δ1
T1 sequence (Q00975 whole entry): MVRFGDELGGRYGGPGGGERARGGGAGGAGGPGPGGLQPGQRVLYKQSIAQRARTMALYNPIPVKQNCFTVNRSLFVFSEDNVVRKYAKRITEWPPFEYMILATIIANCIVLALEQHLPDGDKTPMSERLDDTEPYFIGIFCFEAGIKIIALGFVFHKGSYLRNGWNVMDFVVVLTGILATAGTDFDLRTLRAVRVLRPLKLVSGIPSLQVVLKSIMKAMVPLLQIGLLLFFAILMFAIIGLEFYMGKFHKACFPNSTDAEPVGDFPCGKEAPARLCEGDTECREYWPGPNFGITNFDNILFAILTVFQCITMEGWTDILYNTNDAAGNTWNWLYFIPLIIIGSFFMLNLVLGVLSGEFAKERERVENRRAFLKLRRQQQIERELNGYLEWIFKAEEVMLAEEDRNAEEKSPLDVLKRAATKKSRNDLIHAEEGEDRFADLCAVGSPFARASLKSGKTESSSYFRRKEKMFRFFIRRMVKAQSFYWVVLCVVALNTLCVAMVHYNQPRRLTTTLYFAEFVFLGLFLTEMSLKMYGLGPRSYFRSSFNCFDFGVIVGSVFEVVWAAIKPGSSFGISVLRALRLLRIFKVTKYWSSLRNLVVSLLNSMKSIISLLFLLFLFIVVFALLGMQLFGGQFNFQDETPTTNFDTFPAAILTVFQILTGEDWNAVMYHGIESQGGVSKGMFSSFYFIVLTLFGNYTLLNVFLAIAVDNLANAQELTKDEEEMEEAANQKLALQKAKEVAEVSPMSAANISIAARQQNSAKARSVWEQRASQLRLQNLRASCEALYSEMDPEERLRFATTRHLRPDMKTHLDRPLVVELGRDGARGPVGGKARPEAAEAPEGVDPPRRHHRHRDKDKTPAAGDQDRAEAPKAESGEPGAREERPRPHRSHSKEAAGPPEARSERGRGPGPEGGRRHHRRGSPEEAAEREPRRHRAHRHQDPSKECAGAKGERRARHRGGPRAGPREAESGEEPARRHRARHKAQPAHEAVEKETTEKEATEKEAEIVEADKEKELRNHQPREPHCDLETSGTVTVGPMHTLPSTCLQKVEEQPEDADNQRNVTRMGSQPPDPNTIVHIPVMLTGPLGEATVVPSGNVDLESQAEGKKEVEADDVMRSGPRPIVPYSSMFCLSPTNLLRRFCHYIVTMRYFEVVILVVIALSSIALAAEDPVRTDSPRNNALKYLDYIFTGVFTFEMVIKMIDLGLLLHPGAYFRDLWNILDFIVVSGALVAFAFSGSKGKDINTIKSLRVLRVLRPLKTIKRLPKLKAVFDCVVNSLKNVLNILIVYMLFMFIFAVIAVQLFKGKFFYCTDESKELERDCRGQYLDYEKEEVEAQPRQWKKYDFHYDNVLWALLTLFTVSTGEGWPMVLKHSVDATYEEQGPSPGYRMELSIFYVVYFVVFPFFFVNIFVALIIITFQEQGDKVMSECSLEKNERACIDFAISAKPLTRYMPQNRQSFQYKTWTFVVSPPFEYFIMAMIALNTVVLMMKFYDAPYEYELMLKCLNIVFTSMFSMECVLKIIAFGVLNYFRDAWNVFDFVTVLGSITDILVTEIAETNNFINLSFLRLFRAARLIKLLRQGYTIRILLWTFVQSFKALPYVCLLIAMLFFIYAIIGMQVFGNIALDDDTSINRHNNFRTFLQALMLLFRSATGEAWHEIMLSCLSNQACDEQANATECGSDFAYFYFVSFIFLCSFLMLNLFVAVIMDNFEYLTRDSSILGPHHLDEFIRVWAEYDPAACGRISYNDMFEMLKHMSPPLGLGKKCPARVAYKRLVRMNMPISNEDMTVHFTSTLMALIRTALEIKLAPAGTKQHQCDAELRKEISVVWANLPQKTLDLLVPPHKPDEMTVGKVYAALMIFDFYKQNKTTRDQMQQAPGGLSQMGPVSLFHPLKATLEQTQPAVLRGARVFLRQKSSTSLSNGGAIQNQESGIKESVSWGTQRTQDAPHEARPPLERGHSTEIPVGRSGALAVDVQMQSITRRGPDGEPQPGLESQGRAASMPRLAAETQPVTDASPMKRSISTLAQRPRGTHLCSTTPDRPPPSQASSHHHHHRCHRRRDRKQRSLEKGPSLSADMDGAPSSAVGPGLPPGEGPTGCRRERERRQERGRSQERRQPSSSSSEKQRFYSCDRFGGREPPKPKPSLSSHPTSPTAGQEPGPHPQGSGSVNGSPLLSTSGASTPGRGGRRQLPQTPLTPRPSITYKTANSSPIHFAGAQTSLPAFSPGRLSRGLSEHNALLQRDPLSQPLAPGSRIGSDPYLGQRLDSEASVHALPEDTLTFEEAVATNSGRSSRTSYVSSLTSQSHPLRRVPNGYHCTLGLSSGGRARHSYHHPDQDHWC
T1 sequence (P54284 whole entry partner): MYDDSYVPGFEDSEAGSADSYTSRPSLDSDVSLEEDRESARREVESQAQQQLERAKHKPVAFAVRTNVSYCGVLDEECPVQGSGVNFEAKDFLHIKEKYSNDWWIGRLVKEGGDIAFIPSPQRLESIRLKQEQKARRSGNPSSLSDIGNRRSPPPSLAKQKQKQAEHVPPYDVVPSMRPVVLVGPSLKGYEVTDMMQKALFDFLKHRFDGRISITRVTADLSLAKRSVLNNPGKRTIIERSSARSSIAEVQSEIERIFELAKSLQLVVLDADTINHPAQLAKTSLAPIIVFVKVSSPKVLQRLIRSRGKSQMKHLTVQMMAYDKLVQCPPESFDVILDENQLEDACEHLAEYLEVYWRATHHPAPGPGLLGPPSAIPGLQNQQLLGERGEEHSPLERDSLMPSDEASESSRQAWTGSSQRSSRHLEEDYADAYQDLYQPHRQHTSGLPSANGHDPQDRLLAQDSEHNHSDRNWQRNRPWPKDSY
T1 sequence (P54289 25-946 partner limits assumed): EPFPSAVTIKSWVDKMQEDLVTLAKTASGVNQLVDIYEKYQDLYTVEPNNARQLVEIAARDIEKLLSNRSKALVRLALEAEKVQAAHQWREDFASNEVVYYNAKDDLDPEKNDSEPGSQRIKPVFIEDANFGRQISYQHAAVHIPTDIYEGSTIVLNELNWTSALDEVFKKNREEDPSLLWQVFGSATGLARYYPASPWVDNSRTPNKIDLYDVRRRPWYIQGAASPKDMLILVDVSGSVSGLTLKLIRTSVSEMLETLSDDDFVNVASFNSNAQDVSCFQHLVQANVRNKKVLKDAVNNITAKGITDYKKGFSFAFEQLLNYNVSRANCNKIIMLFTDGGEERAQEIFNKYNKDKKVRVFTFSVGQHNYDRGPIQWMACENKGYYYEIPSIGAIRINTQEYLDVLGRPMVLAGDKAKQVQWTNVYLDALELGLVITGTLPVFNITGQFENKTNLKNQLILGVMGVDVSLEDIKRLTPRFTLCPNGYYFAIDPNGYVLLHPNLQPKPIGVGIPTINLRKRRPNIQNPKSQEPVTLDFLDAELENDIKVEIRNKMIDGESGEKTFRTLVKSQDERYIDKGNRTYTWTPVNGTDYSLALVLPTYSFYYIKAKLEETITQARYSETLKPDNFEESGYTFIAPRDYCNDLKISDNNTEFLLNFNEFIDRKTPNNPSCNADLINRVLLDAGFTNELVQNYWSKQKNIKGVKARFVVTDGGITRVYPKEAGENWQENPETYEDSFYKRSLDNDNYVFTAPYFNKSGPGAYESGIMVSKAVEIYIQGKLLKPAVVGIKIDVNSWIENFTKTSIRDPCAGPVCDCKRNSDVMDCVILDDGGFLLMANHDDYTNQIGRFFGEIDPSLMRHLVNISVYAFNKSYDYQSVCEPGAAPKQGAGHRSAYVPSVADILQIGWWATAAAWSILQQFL
T1 sequence (P54289 947-1103 partner limits assumed): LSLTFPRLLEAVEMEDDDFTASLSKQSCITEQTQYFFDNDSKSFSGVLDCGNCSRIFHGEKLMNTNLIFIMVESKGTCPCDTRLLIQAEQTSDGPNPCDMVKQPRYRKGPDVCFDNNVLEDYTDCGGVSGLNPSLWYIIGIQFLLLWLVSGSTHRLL
Description: hCav2.2 assay (IonWorks planar array electrophysiology). Format: cell-based. The following applies: HEK293 cells; inhibition of current elicited by the 1st depolarising pulse by 50%; read-out: mean pIC50 value (tonic pIC50) (converted). On the procedure:
Compounds of the invention may be tested for in vitro biological activity in the hCav2.2 assay in accordance with the following studies:
Stable cell lines expressing the human Cav2.2α (α1B) subunit, along with the human β3 and α2δ1 auxiliary subunits were created following sequential transfection and selection of human embryonic kidney (HEK293) cells. HEK293 cells were cultured in Dulbecco's modified Eagles media/F12 media (Invitrogen, Cat #041-95750V) containing 10% fetal bovine serum, with added L-glutamine (2 mM; Invitrogen, Cat #25030-024) and non-essential amino acids (5%; Invitrogen, Cat #11140-035). Initially HEK293 cells were transfected with two plasmid vectors for expression of the hCav2.2α subunit (pCIN5-hCav2.2 which carries a neomycin resistance marker) and the hCav β3 subunit (pCIH-hCav β3 which carries a hygromycin resistance marker). Clonal cell lines were isolated following selection in media supplemented with 0.4 mg ml^−1 Geneticin G418 (Invitrogen, Cat #10131-027) and 0.1 mg ml^−1 hygromycin (Invitrogen, Cat #10687-010). These clonal cell lines were assessed for Cav2.2α/β3-mediated current expression using the IonWorks planar array electrophysiology technology (described below). A clonal line was identified that gave a reasonable level of functional Cav2.2α/β3 current expression. This cell line was transfected with a plasmid vector for expression of the human α2δ1 subunit (pCIP-α2δ1 which carries a puromycin resistance marker) and clonal cell lines isolated following selection in media containing 0.62 μg ml^−1 puromycin (Sigma, Cat # P-7255), in addition to 0.4 mg ml^−1 Geneticin G418 and 0.1 mg ml^−1 hygromycin. Several cell lines were identified that gave robust levels of Cav2.2α/β3/α2δ1-mediated current expression and one of these was selected for compound profiling. Expression of all three subunits within this cell line was continuously maintained by the inclusion of G418 (0.4 mg ml^−1), hygromycin (0.1 mg ml^−1) and puromycin (0.62 μg ml^−1). Cells were maintained at 37° C. in a humidified environment containing 5% CO2 in air. Cells were liberated from the T175 culture flasks for passage and harvesting using TrpLE (Invitrogen, Cat #12604-013).
Cells were grown to 30-60% confluence in T175 flasks and maintained at 30° C. for 24 hrs prior to recording. Cells were lifted by removing the growth media, washing with Ca^2+free PBS (Invitrogen, Cat #14190-094) and incubating with 3 ml of warmed (37° C.) TrpLE (Invitrogen, Cat #12604-013) for 6 minutes. Lifted cells were suspended in 10 ml of extracellular buffer. Cell suspension was then placed into a 15 ml tube and centrifuged for 2 minutes at 700 rpm. After centrifugation, the supernatant was removed and the cell pellet was resuspended in 4.5 ml of extracellular solution.
Currents were recorded at room temperature (21-23° C.) using the IonWorks planar array electrophysiology technology (Molecular Devices Corp.). Stimulation protocols and data acquisition were carried out using a microcomputer (Dell Pentium 4). In order to determine planar electrode hole resistances (Rp), a 10 mV, 160 ms potential difference was applied across each hole. These measurements were performed before cell addition. After cell addition a seal test was performed prior to antibiotic (amphotericin) circulation to achieve intracellular access. Leak subtraction was conducted in all experiments by applying a 160 ms hyperpolarizing (10 mV) prepulse 200 ms before the test pulses to measure leak conductance. Test pulses stepping from the holding potential (VH) of −90 mV to +10 mV were applied for 20 ms and repeated 10 times at a frequency of 10 Hz. In all experiments, the test pulse protocol was performed in the absence (pre-read) and presence (post-read) of a compound. Pre- and post-reads were separated by a compound addition followed by a 3-3.5 min incubation.
The intracellular solution contained the following (in mM): K-gluconate 120, KCl 20 mM, MgCl2 5, EGTA 5, HEPES 10, adjusted to pH 7.3. […]
A general note: Patch clamp records ionic current or voltage across a cell membrane.
In the case of `Cc1cc(C(F)(F)F)cc(S(=O)(=O)N2CCCC3(CCNC3=O)C2)c1` (stereo not drawn) [Compound 25, 7-{[3-Methyl-5-(trifluoromethyl)phenyl]sulfonyl}-2,7-diazaspiro[4.5]decan-1-one], the IC50 was at least 31.6 µM. Regarding `Cc1ccc(C(F)(F)F)cc1S(=O)(=O)N1CCCC2(CCNC2=O)C1` (stereo not drawn) [Compound 26, 7-{[2-Methyl-5-(trifluoromethyl)phenyl]sulfonyl}-2,7-diazaspiro[4.5]decan-1-one], the IC50 was at least 31.6 µM. The same measure for `O=C1NCCC12CCCN(S(=O)(=O)c1cc(Cl)cc(Cl)c1)C2` (stereo not drawn) [Compound 19, 7-[(3,5-Dichlorophenyl)sulfonyl]-2,7-diazaspiro[4.5]decan-1-one]: at least 31.6 µM. The same measure for `O=C1NCCC12CCCN(S(=O)(=O)c1ccc(OC(F)(F)F)c(Cl)c1)C2` (stereo not drawn) [Compound 20, 7-({3-Chloro-4-[(trifluoromethyl)oxy]phenyl}sulfonyl)-2,7-diazaspiro[4.5]decan-1-one]: at least 31.6 µM; for `CN1CCC2(CCCN(S(=O)(=O)c3ccc(C(F)(F)F)cc3)C2)C1=O` (stereo not drawn) [Compound 2, 2-Methyl-7-{[4-(trifluoromethyl)phenyl]sulfonyl}-2,7-diazaspiro[4.5]decan-1-one]: at least 31.6 µM; for `O=C1NCCCC12CCCN(S(=O)(=O)c1cccc(C(F)(F)F)c1)C2` (stereo not drawn) [Compound 12, 8-{[3-(Trifluoromethyl)phenyl]sulfonyl}-2,8-diazaspiro[5.5]undecan-1-one]: at least 31.6 µM. `Cc1ccc(S(=O)(=O)N2CCCC3(CCNC3=O)C2)cc1C(F)(F)F` (stereo not drawn) [Compound 23, 7-{[4-Methyl-3-(trifluoromethyl)phenyl]sulfonyl}-2,7-diazaspiro[4.5]decan-1-one]: the IC50 is at least 31.6 µM. On to `Cc1ccc(S(=O)(=O)N2CCCC3(CCCNC3=O)C2)cc1` (stereo not drawn) [Compound 35, 8-[(4-Methylphenyl)sulfonyl]-2,8-diazaspiro[5.5]undecan-1-one], for which the IC50 was at least 31.6 µM. Regarding `O=C1NCCC12CCCN(S(=O)(=O)c1cc(C(F)(F)F)ccc1C(F)(F)F)C2` (stereo not drawn) [Compound 16, 7-{[2,5-Bis(trifluoromethyl)phenyl]sulfonyl}-2,7-diazaspiro[4.5]decan-1-one], the IC50 was at least 31.6 µM. Consider `O=C1NCCCC12CCCN(S(=O)(=O)c1cc(C(F)(F)F)cc(C(F)(F)F)c1)C2` (stereo not drawn) [Compound 27, 8-{[3,5-Bis(trifluoromethyl)phenyl]sulfonyl}-2,8-diazaspiro[5.5]undecan-1-one], for which the IC50 is at least 31.6 µM.

Take `O=C1NCCC12CCCN(S(=O)(=O)c1cccc(OC(F)F)c1)C2` (stereo not drawn) [Compound 33, 7-({3-[(Difluoromethyl)oxy]phenyl}sulfonyl)-2,7-diazaspiro[4.5]decan-1-one]: the IC50 was at least 31.6 µM. To `O=C1NCCCC12CCCN(S(=O)(=O)c1cc(C(F)(F)F)ccc1C(F)(F)F)C2` (stereo not drawn) [Compound 18, 8-{[2,5-Bis(trifluoromethyl)phenyl]sulfonyl}-2,8-diazaspiro[5.5]undecan-1-one] belongs at least 31.6 µM. Regarding `O=C1NCCC12CCCN(S(=O)(=O)c1ccc(C(F)(F)F)cc1Br)C2` (stereo not drawn) [Compound 21, 7-{[2-Bromo-4-(trifluoromethyl)phenyl]sulfonyl}-2,7-diazaspiro[4.5]decan-1-one], the IC50 was at least 31.6 µM. The same measure for `COc1ccc(C(F)(F)F)cc1S(=O)(=O)N1CCCC2(CCNC2=O)C1` (stereo not drawn) [Compound 32, 7-{[2-(Methyloxy)-5-(trifluoromethyl)phenyl]sulfonyl}-2,7-diazaspiro[4.5]decan-1-one]: at least 31.6 µM.

Regarding `O=C1OCCC12CCCN(S(=O)(=O)c1ccc(C(F)(F)F)cc1)C2` (stereo not drawn) [Compound 28, 7-{[4-(Trifluoromethyl)phenyl]sulfonyl}-2-oxa-7-azaspiro[4.5]decan-1-one], the IC50 is at least 31.6 µM. To `CCOc1ccc(S(=O)(=O)N2CCCC3(CCCN(C)C3=O)C2)cc1` (stereo not drawn) [Compound 34, 8-{[4-(Ethyloxy)phenyl]sulfonyl}-2-methyl-2,8-diazaspiro[5.5]undecan-1-one] belongs at least 31.6 µM; to `O=C1NCCCC12CCCN(S(=O)(=O)c1cccc(OC(F)F)c1)C2` (stereo not drawn) [Compound 31, 8-({3-[(Difluoromethyl)oxy]phenyl}sulfonyl)-2,8-diazaspiro[5.5]undecan-1-one], at least 31.6 µM; to `O=C1NCCCC12CCCN(S(=O)(=O)c1ccc(C(F)(F)F)cc1)C2` (stereo not drawn) [Compound 10, 8-{[4-(Trifluoromethyl)phenyl]sulfonyl}-2,8-diazaspiro[5.5]undecan-1-one], at least 31.6 µM. The same measure for `Cc1ccc(S(=O)(=O)N2CCCC3(CCNC3=O)C2)c(C(F)(F)F)c1` (stereo not drawn) [Compound 30, 7-{[4-Methyl-2-(trifluoromethyl)phenyl]sulfonyl}-2,7-diazaspiro[4.5]decan-1-one]: at least 31.6 µM. In the case of `O=C1OCCC12CCCN(S(=O)(=O)c1ccc(OC(F)(F)F)cc1)C2` (stereo not drawn) [Compound 29, 7-({4-[(Trifluoromethyl)oxy]phenyl}sulfonyl)-2-oxa-7-azaspiro[4.5]decan-1-one], the IC50 is at least 31.6 µM. To `O=C1NCCC12CCCN(S(=O)(=O)c1cc(F)cc(C(F)(F)F)c1)C2` (stereo not drawn) [Compound 14, 7-{[3-Fluoro-5-(trifluoromethyl)phenyl]sulfonyl}-2,7-diazaspiro[4.5]decan-1-one] belongs at least 31.6 µM. To `O=C1NCCC12CCCN(S(=O)(=O)c1cc(C(F)(F)F)cc(C(F)(F)F)c1)C2` (stereo not drawn) [Compound 8, 7-{[3,5-Bis(trifluoromethyl)phenyl]sulfonyl}-2,7-diazaspiro[4.5]decan-1-one] belongs at least 31.6 µM; to `O=C1NCCC12CCCN(S(=O)(=O)c1cccc(OC(F)(F)F)c1)C2` (stereo not drawn) [Compound 15, 7-({3-[(Trifluoromethyl)oxy]phenyl}sulfonyl)-2,7-diazaspiro[4.5]decan-1-one], at least 31.6 µM; to `O=C1NCCC12CCCN(S(=O)(=O)c1ccc(OC(F)(F)F)cc1)C2` (stereo not drawn) [Compound 6, 7-({4-[(Trifluoromethyl)oxy]phenyl}sulfonyl)-2,7-diazaspiro[4.5]decan-1-one], at least 31.6 µM. The same measure for `O=C1NCCCC12CCCN(S(=O)(=O)c1cc(F)cc(C(F)(F)F)c1)C2` (stereo not drawn) [Compound 17, 8-{[3-Fluoro-5-(trifluoromethyl)phenyl]sulfonyl}-2,8-diazaspiro[5.5]undecan-1-one]: at least 31.6 µM; for `Cc1ccc(S(=O)(=O)N2CCCC3(CCNC3=O)C2)c(C)c1` (stereo not drawn) [Compound 7, 7-[(2,4-Dimethylphenyl)sulfonyl]-2,7-diazaspiro[4.5]decan-1-one]: at least 31.6 µM; for `O=C1NCCCC12CCCN(S(=O)(=O)c1ccc(OC(F)(F)F)cc1)C2` (stereo not drawn) [Compound 13, 8-({4-[(Trifluoromethyl)oxy]phenyl}sulfonyl)-2,8-diazaspiro[5.5]undecan-1-one]: at least 31.6 µM.

In the case of `O=C1NCCC12CCCN(S(=O)(=O)c1cccc(C(F)(F)F)c1)C2` (stereo not drawn) [Compound 9, 7-{[3-(Trifluoromethyl)phenyl]sulfonyl}-2,7-diazaspiro[4.5]decan-1-one], the IC50 is at least 31.6 µM.

`Cc1ccc(S(=O)(=O)N2CCCC3(CCNC3=O)C2)c(OC(F)(F)F)c1` (stereo not drawn) [Compound 24, 7-({4-Methyl-2-[(trifluoromethyl)oxy]phenyl}sulfonyl)-2,7-diazaspiro[4.5]decan-1-one]: the IC50 is at least 31.6 µM.

On to `CN1CCCC2(CCCN(S(=O)(=O)c3ccc(C(F)(F)F)cc3)C2)C1=O` (stereo not drawn) [Compound 5, 2-Methyl-8-{[4-(trifluoromethyl)phenyl]sulfonyl}-2,8-diazaspiro[5.5]undecan-1-one], for which the IC50 was at least 31.6 µM.

The values above are taken from patent US20130109711A1, “NOVEL COMPOUNDS” (priority 2010, published 2013).
